Laboratory results taken from US5162571A, “Phenol derivatives, their production and use” (Takeda Chemical Industries, Ltd., priority 1987, dated 1992).

Legend:
[1] = test system: U-46619 (TXA2 mimic)-induced broncho-constriction; assay: Inhibitory effect on U-46619 (TXA2 mimic)-induced broncho-constriction in guinea pig; assay type: in vivo; conditions: Cavia porcellus, iv; 0.31 mg/kg i.v., 9 minutes before U-46619; ** p < 0.01
Description: Inhibitory effect on U-46619 (TXA2 mimic)-induced broncho-constrictionin guinea pig
Method: Eight male Hartley guinea pigs were used per one group. The guinea pig anesthetized with urethane (1.5 g/kg, i.p.) was fixed in a dorsal position, subjected to tracheotomy and connected to a respirator through a cannula. A side branch of the tracheal cannula was connected to a respirator (Harvard apparatus rodent respirator Type 680) at the rate of 70 strokes/min. and a constant volume of 3 to 5 ml.
Inflation pressure was kept constant at 10 cm H2 O.
After treatment with gallamine triethiodide (1 mg/kg, i.v.), U-46619 (10 μg/Kg) dissolved in a physiological saline solution was given through a carotid cannula and the airway resistance was measured by the overflow technique of Konzett-Rossler method (Konzett, H. and Rossler, R., Naunyn-Schmiedegerg's Arch, Exp. Path. Pharmak., 195, 71-74 (1940). A test compound was suspended in 5% gum arabic solution and was administered orally 1 hour before the treatment with U-46619.
Alternatively, a test compound was dissolved in aqueous 50% dimethylsulfoxide solution and administered interveneously in the dosage of 0.1 ml/100 g body weight 9 minutes before the treatment of U-46619.

[2] = Extension of bleeding time; assay type: in vivo, rat; conditions: one hour before
Description: Extension of bleeding time
Method: Test compounds were administered orally to rats one hour before the experiments. The rats were anesthetized and the tail was cut at 1.5 mm from the tip. Immediately, the tail was hung down into a physiological saline warmed at 37° C. The time required from initiation to stop of bleeding (bleeding time) was measured.

[3] = biological target: T1, Thromboxane A2 (TXA2) receptor (Oryctolagus cuniculus, UniProt Q6WQI8); assay: Thromboxane A2 (TXA2) receptor antagonism: inhibitory effect on contraction of rabbit aorta by TXA2-mimics; assay type: cell-based; conditions: U-44069 (10^-7 M)-induced contraction
T1 construct: contraction by TXA2 mimics U-44069 or U-46619
T1 sequence (Q6WQI8 1-233): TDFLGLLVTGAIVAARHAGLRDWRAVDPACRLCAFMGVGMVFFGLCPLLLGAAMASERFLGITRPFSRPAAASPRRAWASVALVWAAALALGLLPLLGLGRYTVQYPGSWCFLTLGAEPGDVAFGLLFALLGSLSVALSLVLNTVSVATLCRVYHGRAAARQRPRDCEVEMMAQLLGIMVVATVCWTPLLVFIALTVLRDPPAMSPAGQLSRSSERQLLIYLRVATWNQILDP
Description: Thromboxane A2 (TXA2) receptor antagonism
Inhibitory effect on contraction of rabbit aorta by thromboxan A2 (TXA2)-mimics
Method: A spiral strip of the rabbit aorta (2-3 mm wide, about 3 cm long) was suspended in Krebs-Henseleit solution under the load of 2 g. The Krebs-Henseleit solution was saturated with a mixed gas of 95%O2 -5%CO2 and warmed at 37° C. Inhibition of the contraction of the vascular strip caused by a TXA2 mimic substance U-44069^1) (10^-7 M) or U-46619^2) (3×10 ^-8 M), by pretreatment with Compound No. 13 30 minutes before was studied.
1) U-44069: (5Z, 9α, 11α, 13E, 15S)-15-hydroxy-9,11-(epoxymethano)-prosta-5,13-dienoic acid (manufacturedby The Upjohn Company in U.S.A.)
2) U-46619: (5Z, 9α, 11α, […], 15S)-15-hydroxy-11,9-(epoxymethano)-prosta-5,13-dienoic acid (manufacturedby Cayman Chemical Company)
In Table 5, "*" represents addition of U-46619.

[4] = biological target: T2, 5-Lipoxygenase (Rattus norvegicus, UniProt P12527); assay: 5-Lipoxygenase inhibitory activity (5-HETE production in RBL-1 cells); assay type: cell-based; conditions: read-out: Inhibitory effect on 5-HETE production (%)
T2 construct: RBL-1 cells (rat basophilic leukemia cells); endogenous in cells; host or cells: RBL-1 (rat basophilic leukemia cells)
T2 sequence (P12527 1-673): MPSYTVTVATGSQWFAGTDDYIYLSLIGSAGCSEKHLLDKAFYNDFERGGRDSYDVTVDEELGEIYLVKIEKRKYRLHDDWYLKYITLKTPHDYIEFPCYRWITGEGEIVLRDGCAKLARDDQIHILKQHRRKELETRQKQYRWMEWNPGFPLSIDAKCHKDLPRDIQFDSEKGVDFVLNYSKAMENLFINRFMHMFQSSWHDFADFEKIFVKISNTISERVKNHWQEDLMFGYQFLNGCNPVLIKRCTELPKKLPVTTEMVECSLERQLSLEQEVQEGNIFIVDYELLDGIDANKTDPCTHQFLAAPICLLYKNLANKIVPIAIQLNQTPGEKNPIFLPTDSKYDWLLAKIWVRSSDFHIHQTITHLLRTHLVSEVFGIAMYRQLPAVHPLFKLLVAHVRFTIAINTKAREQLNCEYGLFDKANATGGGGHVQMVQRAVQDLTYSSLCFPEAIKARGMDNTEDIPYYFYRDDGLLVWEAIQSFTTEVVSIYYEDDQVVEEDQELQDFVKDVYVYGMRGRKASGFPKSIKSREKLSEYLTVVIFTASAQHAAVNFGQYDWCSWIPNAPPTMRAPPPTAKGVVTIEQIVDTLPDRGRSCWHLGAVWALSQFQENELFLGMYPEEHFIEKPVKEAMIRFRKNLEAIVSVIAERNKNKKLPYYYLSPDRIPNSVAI
Description: 5-Lipoxygenase inhibitory activity
Method: 10^7 RBL-1 cells (rat basophilic leukemia cells) were suspended in 0.5 ml of MCM (mast cell medium), and test solutions (made up of 0.5 ml of MCM, 50 μg of arachidonic acid, 10 μg of A-23187 (calcium ionophore) and 1 μM, 0.01 μM and 0.001 μM as the final concentration of the phenol compound, respectively) prepared previously were added respectively to the suspension, followed by reaction at 37° C. for 20 minutes. After the conclusion of the reaction, 4 ml of ethanol and 1,4-dimethoxy-2-methyl-3-(3-methoxypropyl)naphthalene as the internal reference drug were added to the reaction solution, and the mixture was shaken thoroughly and allowed to stand at room temperature for 10 minutes. Then, it was centrifuged (2000 r.p.m.) for 10 minutes, and the supernatant fluid was separated and concentrated to dryness under reduced pressure. 0.5 ml of 60% aqueous methanol was added to the concentrate, and 100 μl of the resulting solution was taken and subjected to high-performance liquid chromatography to determine the amount of 5-HETE (5-hydroxy-eicosatetraenoic acid). Determination of 5-HETE was made through measurement of an absorption at 237 nm with a UV absorption monitor.
The 5-HETE production inhibitory effect (IE) was expressed by [formula] wherein a is a peak height or peak area corrected by the peak for the internal reference when the phenol compound is not contained; b is a peak height or peak area corrected by the peak for the internal reference when the phenol compound is contained.

## Cc1c(C)c(Br)c(C)c(C(CCCCCC(=O)O)c2ccc(F)cc2)c1O (centres unmarked) [Compound 12, 7-(5-bromo-2-hydroxy-3,4,6-trimethylphenyl)-7-(4-fluorophenyl)heptanoic acid]
[1]
  inhibition in vivo at 0.31 mg/kg: 96%
[2]; 10 mg/kg oral, control 173 ± 23, * p < 0.05
  Bleeding time: 272 ± 52 s
[2]; 30 mg/kg oral, control 164 ± 27, ** p < 0.01
  Bleeding time: 258 ± 14 s
[3]; 10^-5 M
  inhibition at 10 µM: 100%
[3]; 10^-6 M
  inhibition at 1 µM: 79%
[3]; 10^-7 M
  inhibition at 0.1 µM: 12%
[4]; 10^-5 M
  inhibition at 10 µM: 96%
[4]; 10^-6 M
  inhibition at 1 µM: 22%
